According to ChEMBL document CHEMBL1208792, “A novel series of [3.2.1] azabicyclic biaryl ethers as alpha3beta4 and alpha6/4beta4 nicotinic receptor agonists” (Bioorg Med Chem Lett, 2010):

Tests used:
[1] = Agonist activity at human alpha6/4beta4 nicotinic receptor expressed in human HEK cells assessed as intracellular calcium […] by FLIPR relative to control; format: functional, HEK293
[2] = biological target: Neuronal acetylcholine receptor; alpha4/beta2 (Homo sapiens, UniProt P17787+P43681); test: Displacement of [3H]epibatidine from alpha4beta2 nicotinic receptor expressed in human HEK293 cells; format: cell-based; conditions: read-out: Ki
[3] = biological target: T1, Neuronal acetylcholine receptor; alpha3/beta4 (Homo sapiens, UniProt P30926+P32297); test: Agonist activity at alpha3beta4 nicotinic receptor expressed in human HEK cells assessed as intracellular calcium efflux by FLIPR
[4] = biological target: Neuronal acetylcholine receptor subunit alpha-7 (Homo sapiens, UniProt P36544); test: Displacement of [3H]epibatidine from alpha7 nicotinic receptor expressed in human HEK293 cells; format: cell-based
[5] = Agonist activity at human alpha6/4beta4 nicotinic receptor expressed in human HEK cells assessed as intracellular calcium […] by FLIPR; format: functional, cell-based, HEK293
[6] = biological target: T1, Neuronal acetylcholine receptor; alpha3/beta4; test: Displacement of [3H]epibatidine from alpha3beta4 nicotinic receptor expressed in human HEK293 cells; format: cell-based
[7] = biological target: T1, Neuronal acetylcholine receptor; alpha3/beta4; test: Agonist activity at alpha3beta4 nicotinic receptor expressed in human HEK cells assessed as intracellular calcium […] by FLIPR relative to control; format: functional, cell-based; conditions: HEK293
[8] = Displacement of [3H]epibatidine from alpha6/4beta4 nicotinic receptor expressed in human HEK293 cells; format: cell-based
[9] = biological target: Acetylcholine receptor; alpha1/beta1/delta/gamma (Homo sapiens, UniProt P02708+P07510+P11230+Q07001); test: Binding affinity to alpha-1-beta-gamma-delta nicotinic receptor; format: protein-complex assay
[10] = tested on: human MDR (P-glycoprotein); test: (§1) Efflux ratio of permeability from basolateral to apical side over apical to basolateral side of MDCK cells expressing human MDR gene; format: ADME, cell-based, Canis lupus familiaris; conditions: dog, MDCK-MDR1
[11] = biological target: Voltage-gated inwardly rectifying potassium channel KCNH2 (Homo sapiens, UniProt Q12809); test: Displacement of [3H]dofetilide from human ERG expressed in HEK293 cells; format: cell-based; conditions: hek293
[12] = (§2) Apparent permeability from apical to basolateral side of MDCK cells; format: ADME, cell-based, Canis lupus familiaris; conditions: dog
Mus musculus [13] = test: Antipsychotic effect in sc dosed CD1 mouse assessed as prepulse inhibition; format: functional; conditions: read-out: MED
Mus musculus [14] = test: Antipsychotic effect in sc dosed CD1 mouse assessed as inhibition of mescaline-induced scratching behavioral response; format: functional
MDCK [15] = test: as §1; format: ADME, cell-based, Canis lupus familiaris; conditions: dog, MDCK
MDCK [16] = test: as §2; format: ADME, cell-based, Canis lupus familiaris; conditions: dog
[17] = Homo sapiens, HEK293, read-out: EC50

Chain of Voltage-gated inwardly rectifying potassium channel KCNH2 (Q12809 whole entry): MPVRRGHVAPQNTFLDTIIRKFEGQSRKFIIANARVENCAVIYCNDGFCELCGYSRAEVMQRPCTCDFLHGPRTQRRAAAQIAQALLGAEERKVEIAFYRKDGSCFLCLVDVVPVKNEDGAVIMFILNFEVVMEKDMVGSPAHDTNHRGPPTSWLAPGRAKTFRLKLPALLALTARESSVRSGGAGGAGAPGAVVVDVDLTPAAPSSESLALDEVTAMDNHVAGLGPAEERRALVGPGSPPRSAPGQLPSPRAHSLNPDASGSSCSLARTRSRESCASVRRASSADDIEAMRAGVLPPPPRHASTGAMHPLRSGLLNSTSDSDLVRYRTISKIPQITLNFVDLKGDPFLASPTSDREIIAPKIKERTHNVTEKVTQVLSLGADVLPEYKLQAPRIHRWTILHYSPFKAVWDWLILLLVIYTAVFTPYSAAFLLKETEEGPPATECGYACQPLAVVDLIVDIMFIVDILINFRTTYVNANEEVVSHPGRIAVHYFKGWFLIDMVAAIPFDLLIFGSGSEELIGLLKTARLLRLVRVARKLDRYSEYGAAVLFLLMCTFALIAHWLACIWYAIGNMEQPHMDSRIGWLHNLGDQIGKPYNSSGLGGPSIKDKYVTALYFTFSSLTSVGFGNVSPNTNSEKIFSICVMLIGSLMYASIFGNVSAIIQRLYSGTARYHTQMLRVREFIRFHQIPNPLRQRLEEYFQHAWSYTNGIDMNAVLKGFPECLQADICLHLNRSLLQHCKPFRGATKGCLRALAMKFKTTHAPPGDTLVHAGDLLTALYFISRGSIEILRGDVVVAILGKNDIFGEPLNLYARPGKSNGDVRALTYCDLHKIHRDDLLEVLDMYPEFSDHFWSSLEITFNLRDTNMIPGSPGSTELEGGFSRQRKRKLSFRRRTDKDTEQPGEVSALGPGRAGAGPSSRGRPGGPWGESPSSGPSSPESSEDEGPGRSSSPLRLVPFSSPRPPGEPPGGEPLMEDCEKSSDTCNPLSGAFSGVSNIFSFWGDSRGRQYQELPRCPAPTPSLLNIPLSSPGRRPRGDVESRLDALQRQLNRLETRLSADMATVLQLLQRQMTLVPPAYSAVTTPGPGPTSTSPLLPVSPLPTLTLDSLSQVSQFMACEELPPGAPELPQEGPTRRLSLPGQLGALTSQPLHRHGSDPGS
Chain of Neuronal acetylcholine receptor; alpha4/beta2 (P17787 whole entry): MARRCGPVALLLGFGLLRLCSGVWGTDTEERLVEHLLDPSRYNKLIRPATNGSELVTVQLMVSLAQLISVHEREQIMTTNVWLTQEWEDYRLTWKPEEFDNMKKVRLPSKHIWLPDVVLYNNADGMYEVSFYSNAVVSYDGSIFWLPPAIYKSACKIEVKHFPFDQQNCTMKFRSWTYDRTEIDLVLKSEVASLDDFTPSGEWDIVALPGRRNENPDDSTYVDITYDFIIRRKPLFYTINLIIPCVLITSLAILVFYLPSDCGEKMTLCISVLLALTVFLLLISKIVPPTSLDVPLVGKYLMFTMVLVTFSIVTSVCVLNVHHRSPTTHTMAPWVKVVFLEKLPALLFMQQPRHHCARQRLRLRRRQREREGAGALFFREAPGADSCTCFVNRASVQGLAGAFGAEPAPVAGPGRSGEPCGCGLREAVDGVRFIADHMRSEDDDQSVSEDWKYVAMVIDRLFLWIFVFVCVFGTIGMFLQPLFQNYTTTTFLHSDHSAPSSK
Chain of Neuronal acetylcholine receptor; alpha4/beta2 (P43681 whole entry): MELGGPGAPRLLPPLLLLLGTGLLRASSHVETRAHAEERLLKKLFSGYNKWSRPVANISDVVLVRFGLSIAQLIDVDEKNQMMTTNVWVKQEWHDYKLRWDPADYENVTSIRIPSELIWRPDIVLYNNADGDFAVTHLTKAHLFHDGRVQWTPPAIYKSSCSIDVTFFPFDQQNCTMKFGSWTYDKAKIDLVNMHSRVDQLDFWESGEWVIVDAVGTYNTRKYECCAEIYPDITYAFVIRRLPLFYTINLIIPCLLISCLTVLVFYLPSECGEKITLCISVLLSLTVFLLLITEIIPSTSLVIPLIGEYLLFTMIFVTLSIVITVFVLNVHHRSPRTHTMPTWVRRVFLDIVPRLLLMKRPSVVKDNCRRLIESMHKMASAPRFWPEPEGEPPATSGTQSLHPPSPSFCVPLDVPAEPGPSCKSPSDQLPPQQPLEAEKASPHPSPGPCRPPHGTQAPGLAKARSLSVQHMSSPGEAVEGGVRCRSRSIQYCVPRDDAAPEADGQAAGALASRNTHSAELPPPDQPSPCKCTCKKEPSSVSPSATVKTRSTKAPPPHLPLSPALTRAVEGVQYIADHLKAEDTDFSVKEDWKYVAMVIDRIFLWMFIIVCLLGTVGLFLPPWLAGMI
Chain of Neuronal acetylcholine receptor subunit alpha-7 (P36544 whole entry): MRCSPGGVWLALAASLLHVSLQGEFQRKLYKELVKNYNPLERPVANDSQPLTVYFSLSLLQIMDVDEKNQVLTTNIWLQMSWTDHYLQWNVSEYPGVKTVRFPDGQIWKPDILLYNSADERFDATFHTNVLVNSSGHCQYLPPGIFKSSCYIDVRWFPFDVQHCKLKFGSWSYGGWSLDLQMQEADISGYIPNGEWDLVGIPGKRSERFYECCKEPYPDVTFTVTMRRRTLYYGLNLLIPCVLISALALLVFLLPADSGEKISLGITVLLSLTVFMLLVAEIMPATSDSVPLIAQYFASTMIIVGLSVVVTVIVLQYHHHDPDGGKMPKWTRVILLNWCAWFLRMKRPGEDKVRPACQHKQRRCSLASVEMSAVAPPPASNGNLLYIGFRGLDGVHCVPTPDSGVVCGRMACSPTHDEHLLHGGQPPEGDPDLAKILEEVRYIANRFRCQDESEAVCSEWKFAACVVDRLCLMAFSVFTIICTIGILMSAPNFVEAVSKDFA
Chain of Acetylcholine receptor; alpha1/beta1/delta/gamma (P02708 whole entry): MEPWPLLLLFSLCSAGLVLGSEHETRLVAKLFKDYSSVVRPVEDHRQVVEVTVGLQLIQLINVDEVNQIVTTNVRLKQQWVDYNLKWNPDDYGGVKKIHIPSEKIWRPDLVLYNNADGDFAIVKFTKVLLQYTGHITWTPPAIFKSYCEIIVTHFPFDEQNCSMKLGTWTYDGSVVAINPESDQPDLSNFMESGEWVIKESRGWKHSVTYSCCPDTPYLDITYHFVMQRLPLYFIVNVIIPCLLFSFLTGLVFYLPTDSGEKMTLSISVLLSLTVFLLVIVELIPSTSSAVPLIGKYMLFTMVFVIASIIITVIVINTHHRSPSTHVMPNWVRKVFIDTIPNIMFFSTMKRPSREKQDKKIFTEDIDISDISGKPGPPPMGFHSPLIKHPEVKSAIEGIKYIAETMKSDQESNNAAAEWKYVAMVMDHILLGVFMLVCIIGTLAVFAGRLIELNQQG
Chain of Acetylcholine receptor; alpha1/beta1/delta/gamma (P07510 whole entry): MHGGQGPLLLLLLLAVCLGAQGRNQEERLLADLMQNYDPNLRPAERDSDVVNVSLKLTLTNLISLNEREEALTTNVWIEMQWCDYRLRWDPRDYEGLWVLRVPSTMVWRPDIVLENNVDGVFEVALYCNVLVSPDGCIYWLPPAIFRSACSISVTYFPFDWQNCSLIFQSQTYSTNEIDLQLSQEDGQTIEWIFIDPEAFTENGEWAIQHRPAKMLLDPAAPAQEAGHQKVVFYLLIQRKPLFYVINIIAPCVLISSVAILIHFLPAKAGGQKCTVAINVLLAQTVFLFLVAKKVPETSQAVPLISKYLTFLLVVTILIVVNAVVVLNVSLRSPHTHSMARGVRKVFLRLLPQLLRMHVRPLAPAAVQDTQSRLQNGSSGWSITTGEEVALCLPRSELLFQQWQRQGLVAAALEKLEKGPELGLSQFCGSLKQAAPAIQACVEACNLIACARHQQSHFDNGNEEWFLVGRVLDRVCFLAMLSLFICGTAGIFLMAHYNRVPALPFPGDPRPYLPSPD
Chain of Acetylcholine receptor; alpha1/beta1/delta/gamma (P11230 whole entry): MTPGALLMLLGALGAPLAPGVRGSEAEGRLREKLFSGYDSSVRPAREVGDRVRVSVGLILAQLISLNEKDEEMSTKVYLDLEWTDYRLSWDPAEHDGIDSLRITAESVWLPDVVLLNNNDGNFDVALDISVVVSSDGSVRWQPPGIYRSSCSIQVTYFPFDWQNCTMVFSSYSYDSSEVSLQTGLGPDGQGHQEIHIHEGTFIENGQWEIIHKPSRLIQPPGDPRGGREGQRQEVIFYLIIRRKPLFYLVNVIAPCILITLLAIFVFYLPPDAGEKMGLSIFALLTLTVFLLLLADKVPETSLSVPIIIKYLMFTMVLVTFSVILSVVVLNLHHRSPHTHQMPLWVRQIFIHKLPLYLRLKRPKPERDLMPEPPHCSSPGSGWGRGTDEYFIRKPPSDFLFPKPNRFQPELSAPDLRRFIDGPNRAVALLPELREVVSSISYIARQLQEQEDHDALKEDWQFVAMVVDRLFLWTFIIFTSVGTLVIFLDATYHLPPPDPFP
Chain of Acetylcholine receptor; alpha1/beta1/delta/gamma (Q07001 whole entry): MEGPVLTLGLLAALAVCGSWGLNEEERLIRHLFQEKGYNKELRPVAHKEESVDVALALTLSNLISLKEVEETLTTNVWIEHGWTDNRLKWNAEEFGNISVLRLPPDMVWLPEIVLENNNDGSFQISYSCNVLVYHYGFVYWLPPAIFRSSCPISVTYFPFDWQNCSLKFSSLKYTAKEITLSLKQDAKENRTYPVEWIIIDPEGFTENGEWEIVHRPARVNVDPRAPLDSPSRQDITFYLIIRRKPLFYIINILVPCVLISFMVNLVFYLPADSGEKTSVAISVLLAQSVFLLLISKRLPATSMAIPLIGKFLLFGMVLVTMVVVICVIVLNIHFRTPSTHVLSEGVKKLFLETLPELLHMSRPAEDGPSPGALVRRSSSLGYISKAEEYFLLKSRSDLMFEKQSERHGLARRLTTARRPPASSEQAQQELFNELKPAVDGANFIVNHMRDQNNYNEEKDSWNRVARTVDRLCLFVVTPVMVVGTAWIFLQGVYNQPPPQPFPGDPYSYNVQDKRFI

SMILES: Cl.Oc1ccncc1-c1ccccc1O[C@H]1C[C@@H]2CNC[C@H]1C2 (racemic)
- Efficacy [1]: 91%
- Ki [2]: > 419 nM
- EC50 [3]: 16.3 nM
- Ki [4]: > 15000 nM
- EC50 [5, 17]: 5 nM
- Ki [6]: 2.1 nM
- Efficacy [7]: 82%
- Ki [8]: 3.15 nM
- Ki [9]: > 15300 nM

SMILES: c1cncc(-c2ccccc2O[C@@H]2C[C@H]3CNC[C@@H]2C3)c1
- Ki [2]: > 614 nM
- EC50 [5, 17]: 126 nM
- Ki [6]: 16.9 nM
- Efficacy [7]: 46%
- Ki [8]: 78.5 nM

SMILES: CCS(=O)(=O)Nc1cncc(-c2ccccc2O[C@H]2C[C@@H]3CNC[C@H]2C3)c1.Cl (racemic)
- Efficacy [1]: 182%
- Ki [2]: > 604 nM
- EC50 [3]: 1.09 nM
- Ki [4]: 9870 nM
- EC50 [5, 17]: 0.37 nM
- Ki [6]: 0.149 nM
- efflux ratio [10]: 0.93
- Efficacy [7]: 108%
- Ki [8]: 0.313 nM
- Ki [9]: > 15000 nM
- Ki [11]: Not Active
- Papp A→B [12]: 0.44 ×10⁻⁶ cm/s

SMILES: CS(=O)(=O)Nc1cncc(-c2ccccc2O[C@H]2C[C@@H]3CNC[C@H]2C3)c1 (racemic)
- Efficacy [7]: 116%

SMILES: Oc1cncc(-c2ccccc2O[C@H]2C[C@@H]3CNC[C@H]2C3)c1
- Efficacy [7]: 118%

SMILES: c1cncc(-c2ccccc2O[C@H]2C[C@@H]3CNC[C@H]2C3)c1 (racemic)
- Efficacy [7]: 45%

SMILES: Cl.Oc1cncc(-c2ccccc2O[C@@H]2C[C@H]3CNC[C@@H]2C3)c1
- Efficacy [1]: 70%
- Ki [2]: 149 nM
- EC50 [3]: 34.4 nM
- Ki [4]: > 15000 nM
- Ki [6]: 2.02 nM
- efflux ratio [10]: 3.5
- Efficacy [7]: 52%
- Ki [8]: 7.16 nM
- Ki [9]: 8320 nM
- Ki [11]: Not Active
- Papp A→B [12]: 2.66 ×10⁻⁶ cm/s

SMILES: CS(=O)(=O)Nc1cncc(-c2ccccc2O[C@H]2C[C@@H]3CNC[C@H]2C3)c1.Cl
- Efficacy [1]: 148%
- Ki [2]: 336 nM
- minimal effective dose (Mus musculus [13]): 3.2 mg/kg
- EC50 [3]: 3.06 nM
- ED50 (Mus musculus [14]; read-out: ID50 (the source's name)): 0.66 mg/kg
- minimal effective dose (Mus musculus [14]; read-out: MED): 0.1 mg/kg
- Ki [4]: 4780 nM
- EC50 ([5]; hek293, read-out: EC50): 3.27 nM
- Ki [6]: 0.158 nM
- efflux ratio [10]: 4.38
- Ki [8]: 0.168 nM
- Ki [9]: 11700 nM
- Ki [11]: Not Active
- Papp A→B [12]: 1.17 ×10⁻⁶ cm/s

SMILES: Oc1cncc(-c2ccccc2O[C@H]2C[C@@H]3CNC[C@H]2C3)c1 (racemic)
- Efficacy [7]: 117%

SMILES: Cl.c1cncc(-c2ccccc2O[C@H]2C[C@@H]3CNC[C@H]2C3)c1
- Efficacy [1]: 35%
- Ki [2]: > 832 nM
- EC50 [3]: < 100 nM
- Ki [4]: 3300 nM
- Ki [6]: 1.21 nM
- Ratio (MDCK [15]): 1.65
- Ki [8]: 2.15 nM
- Ki [9]: 1020 nM
- Ki [11]: Not Active
- Papp (MDCK [16]): 28.7 ×10⁻⁶ cm/s

SMILES: c1cnc2cc3c(cc2n1)[C@@H]1CNC[C@H]3C1 [VARENICLINE]
- Ki [8]: 89 nM
- Ki [9]: 8200 nM

SMILES: CC(=O)Nc1cncc(-c2ccccc2O[C@H]2C[C@@H]3CNC[C@H]2C3)c1.Cl (racemic)
- Efficacy [1]: 51%
- Ki [2]: > 615 nM
- EC50 [3]: 252 nM
- Ki [4]: > 15000 nM
- EC50 [5, 17]: 35.4 nM
- Ki [6]: 9.53 nM
- Efficacy [7]: 100%
- Ki [8]: 17.1 nM
- Ki [9]: 530 nM

SMILES: Cl.NC(=O)c1cncc(-c2ccccc2O[C@H]2C[C@@H]3CNC[C@H]2C3)c1 (stereo in doubt)
- Efficacy [1]: 59.5%
- Ki [2]: > 963 nM
- EC50 [3]: 36.8 nM
- Ki [4]: > 15000 nM
- EC50 ([5]; hek293): Not Active
- Ki [6]: 3.79 nM
- Efficacy [7]: 102%
- Ki [8]: 12.5 nM
- Ki [9]: > 15000 nM

SMILES: Cl.Oc1cncc(-c2ccccc2O[C@H]2C[C@@H]3CNC[C@H]2C3)c1
- Efficacy [1]: 230%
- Ki [2]: 252 nM
- EC50 [3]: 2.99 nM
- Ki [4]: > 13500 nM
- EC50 ([5]; hek293, read-out: EC50): 279 nM
- Ki [6]: 0.748 nM
- Ratio (MDCK [15]): 5.02
- Ki [8]: 0.177 nM
- Ki [9]: 1680 nM
- Ki [11]: Not Active
- Papp (MDCK [16]): 3.36 ×10⁻⁶ cm/s

SMILES: CS(=O)(=O)Nc1cncc(-c2ccccc2O[C@H]2C[C@@H]3CNC[C@H]2C3)c1
- Efficacy [7]: 120%
